These are literature values, as cited in PMC2832019, “In Vitro Metabolic and Mitogenic Signaling of Insulin Glargine and Its Metabolites” (PLoS ONE, 2010).

Where two headings read alike, the source gives them in different places. Where only a bound is given, the exact number is not on record here.

The conditions of data set [1]: in vivo, sc; cited from earlier work.
The subject of another data set is Sprague-Dawley rats. The conditions noted are these: rat, in vivo; cited from earlier work.
The subject of a further data set is Saos-2. Also noted: method as in PMID 10866053. To be noted: ref [12]; cited from earlier work.
Data set [2] relates to BT474, T47D, ZR75-1, MDA-MB231, HCC1937. The conditions noted are these: ref [15]; cited from earlier work. The text has this: (§1) A correlation between IGF1R autophosphorylation and cell proliferation has been recently assumed by Shukla et al., who observed an enhanced growth of the malignant cell line MCF7 after insulin glargine stimulation. The authors have observed 10% and 50% increases of cellular proliferation at 0.31 and about 15 nmol/L. This effect seemed to be linked to activation of the IGF1R and the MAPK pathway, since siRNA knockdown of IGF1R decreased the response. Unfortunately, no dose-response curve of IGF1R autophosphorylation as well as no proliferation data from siRNA knockdown of IR have ...

The next data set has as its system MCF7. To be noted: ref [15], cited from earlier work.
Text: as §1

Data set [3] relates to MCF7 and other tumor cell lines. To be noted: ref [14]; cited from earlier work.
Text: as §1

The test system of another data set is MCF-7 and SKBR-3 cells. The conditions noted are these: ref [48]; cited from earlier work.
Text: as §1

The test system of data set [4] is MCF-7 cells, HCT-116 (colorectal cancer) and PC-3 (prostate cancer) cells. To be noted: ref [49]; cited from earlier work. The text has this: A correlation between IGF1R autophosphorylation and cell proliferation has been recently assumed by Shukla et al., who observed an enhanced growth of the malignant cell line MCF7 after insulin glargine stimulation. The authors have observed 10% and 50% increases of cellular proliferation at 0.31 and about 15 nmol/L. […] Unfortunately, no dose-response curve of IGF1R autophosphorylation as well as no proliferation data from siRNA knockdown of IR have ...

For data set [5] the following is noted: after injection, healthy subjects and patients with type 1 diabetes; ref [52]–[55]; cited from earlier work. The text has this:
The therapeutic insulin glargine concentrations reported so far are 80- to 200-fold below the total plasma concentrations of IGF-1. […] Therefore, the concentration of free IGF-1 may be within the range of the plasma concentration of insulin glarg ...

A further data set has as its system rats. The conditions noted are these: 2-year life-time, relative to human insulin, ref [59]; cited from earlier work. The text has this: In these studies plasma insulin concentrations were 15 to 25 nmol/L, covering parent compound and active metabolites. In consequence, actual glargine concentrations may be overestimated, the extent of which depends on the degree of proteolytic degradation at both the injection site and the serum. Quantitative assessment of the insulin glargine metabolism in humans is evolving, and will bring further clarification.

In the case of [Gly^A21,Arg^B31]insulin [Glargine IM], the amount of metabolite entry in data set [1] is “only in minor quantities”.

For [Asp^B10]insulin, in the data set with Sprague-Dawley rats, the “incidence of breast cancer” value is reported as “higher incidence of breast cancer”. The “proliferation rate of Saos-2” value in the data set with Saos-2 was “higher proliferation rate”.

In the case of “Human insulin: human insulin produced by recombinant DNA techniques or enzymatic semisynthesis”, in data set [2], the “response of cell lines to human insulin” value is “did not respond”.

Take “[Gly^A21,Arg^B31,Arg^B32]insulin [Glargine]”: the “increase of cellular proliferation” value was 10% in the data set with MCF7 (at 0.31 nmol/L) and 50% with MCF7 (at about 15 nmol/L). Besides, in data set [3], the “mitogenic activity relative to human insulin” value is listed as “no evidence for an increased mitogenic activity”. Also, the mitogenic activity result with MCF-7 and SKBR-3 cells was “slightly increased mitogenic activity of insulin glargine without statistical significance”. In data set [4], the mitogenic potency entry was “increased mitogenic potency”. Further, the “peak free serum insulin glargine level” value in data set [5] is less than 200 pmol/L. In the data set on rats, the tumor-promoting activity entry is “without evidence of tumor-promoting activity greater than human insulin”.
